{
  "source": "patent US20220338471A1",
  "about": "“HONEY BEE-SAFE ACARICIDAL COMPOUNDS” (Kansas State University Research Foundation, priority 2019, published 2022)",
  "key": {"[1]": {"target": "T1, varroa mite proctolin receptor (VdProctR) (Varroa destructor, UniProt A0A7T1TE40)", "T1 sequence (A0A7T1TE40 1-530)": "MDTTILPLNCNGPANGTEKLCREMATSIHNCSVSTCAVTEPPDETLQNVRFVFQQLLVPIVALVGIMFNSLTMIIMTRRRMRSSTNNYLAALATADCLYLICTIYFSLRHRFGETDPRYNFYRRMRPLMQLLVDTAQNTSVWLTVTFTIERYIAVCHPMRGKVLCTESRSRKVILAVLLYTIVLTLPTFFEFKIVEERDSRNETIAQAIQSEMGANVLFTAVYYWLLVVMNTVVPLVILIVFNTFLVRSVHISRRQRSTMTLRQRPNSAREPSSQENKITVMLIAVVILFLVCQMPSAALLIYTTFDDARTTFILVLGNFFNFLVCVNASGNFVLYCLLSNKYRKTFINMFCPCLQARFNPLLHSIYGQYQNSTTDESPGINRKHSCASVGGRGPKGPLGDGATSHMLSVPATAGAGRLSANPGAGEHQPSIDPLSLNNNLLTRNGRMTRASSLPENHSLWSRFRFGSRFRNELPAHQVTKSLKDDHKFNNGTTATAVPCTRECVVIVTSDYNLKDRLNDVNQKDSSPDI", "test": "Receptor activity assay: luminescence in cells transiently transfected with varroa mite proctolin receptor", "type": "cell-based", "method": "Approximately thirty hours after transfection, the cells were collected and preincubated with coelenterazine h for the functional assay. The ligands in serial dilutions were loaded into 96-well opaque plates. Cells treated with coelenterazine h were injected into each well on an Orion microplate luminometer (Berthold) luminescent plate reader. The luminescence was measured for 20 seconds immediately after the cell injections. Data analyses were performed to determine the accumulated luminescence value for 20 seconds after extraction of blank-well luminescence. A dose-response curve was generated and the EC50 (50% effective concentration) was calculated in Origin 7 (OriginLab)."}, "[2]": {"tested_on": "Varroa mites", "test": "Varroa mite toxicity test (forced feeding, 200 nL drop on the gnathosoma; paralysis/death counted)", "type": "in vivo, Varroa destructor", "details": "48-hour treatment, feeding assay", "method": "Varroa mite toxicity test: Adult female Varroa mites were collected using a sugar roll method from honey bee hives located at the East Campus apiary of the University of Nebraska (Lincoln, Nebr. USA). The hives were not treated with chemicals for honey bee parasites or pathogens. The mites were sorted in the laboratory with a paint brush and tested within 4 h post collection. The mites were placed in 9 cm diameter Petri dishes (Fisher Scientific) lined with filter paper. The dorsal side of the mites was secured to a strip of tape placed on the filter paper. Ten mites were secured to the tape in each dish and three dishes were used for each treatment (i.e., 30 mites/treatment). The peptide mimics were prepared in autoclaved ddH2O to a concentration of 0.1 nM for 2334, 2336, and Ac-2442 and 3 nM for 2326. Each peptide mimic was delivered as a 200 nL aliquot to the gnathosoma of the mites with autoclaved ddH2O serving as the untreated control. Following exposure to the peptide mimics, the number of affected (i.e., dead and/paralyzed) was observed and recorded at 1, 2, 6, 12, 24, and 48 h. The percent effect for each treatment was analyzed using a one-way analysis of variance (ANOVA) with a Tukey's post-hoc test (GraphPad Prism, La Jolla, Calif.; p<0.05).\nIn the continued bioassay (FIG. 4 and FIG. 5), the toxicities were assessed by counting paralysis/death in feeding assay. […]"}, "[3]": {"tested_on": "worker honey bees", "test": "Injection into the thorax of worker honey bees (negative effects)", "type": "in vivo, honey bee", "details": "injection of 50 nL at 200 μM into the thorax, 24-hour observation, n=4", "method": "Honey bee FMRFamide receptor was cloned and expressed in the same system as described for the procotolin receptor. […] Potential effects of the peptidomimetics 2439, 2334, 2336, Ac-2442, and H2O control were tested by injections of the compounds into the thorax of worker honey bees."}},
  "note": "Values joined by “and” are separate entries in the source; they are usually repeats but may differ in a detail not shown here. Equal entries are not always repeated. Square brackets hold non-standard residues; d marks the D form. Peptide text beside a SMILES is read from it. Oic = O=C(O)[C@@H]1C[C@@H]2CCCC[C@@H]2N1",
  "data": [
    {"smiles": "CC(C)C[C@H](NC(=O)[C@H](Cc1ccc(O)cc1)NC(=O)[C@@H](N)CCCNC(=N)N)C(=O)N1[C@H](C(=O)N[C@H](C(=O)O)[C@@H](C)O)C[C@@H]2CCCC[C@@H]21", "note": "[Analog 2336, RYL[Oic]T] (H-RYL[Oic]T-OH; N-terminus assumed)", "values": [
      {"measurement": "Activity at high concentrations compared with proctolin", "setting": "[1]; at 1 μM and 10 μM", "value": "higher than that of proctolin"},
      {"measurement": "Fold change", "setting": "[1]; first set of experiments, EC50 relative to proctolin (0.22 nM)", "value": 5.95},
      {"measurement": "EC50", "setting": "[1]; first set of experiments, varroa mite proctolin receptor, read-out: EC50", "value": "1.3 nM and 1.31 nM"},
      {"measurement": "Agonist activity / potency on the Varroa mite proctolin receptor, in words", "setting": "[1]; in words", "value": "strong agonists"},
      {"measurement": "Percent effect (paralyzed or dead mites)", "setting": "[2]", "value": 100, "unit": "%"},
      {"measurement": "Negative effects in worker honey bees", "setting": "[3]", "value": "did not show any negative effects"}
    ]}
  ]
}
